Paper PMC6850446, “In vivo inactivation of glycosidases by conduritol B epoxide and cyclophellitol as revealed by activity‐based protein profiling” (The Febs Journal, 2019)
Like-named read-outs stand apart in the source and are kept apart here.

Legend:
[1] = biological target: T1, GAA (lysosomal alpha-glucosidase) (Homo sapiens, UniProt P10253); experiment: intact cells treated, residual activity in lysate with 4MU-alpha-D-glucopyranoside; type: cell-based; details: 24 h treatment of intact HEK293T cells, assay pH 4.0
T1 construct: endogenous enzyme in HEK293T cells (GBA2-expressing line)
Description: intact cells treated, residual activity in lysate with 4MU-alpha-D-glucopyranoside on GAA (lysosomal alpha-glucosidase)

GBA (zebrafish larvae) = biological target: T2, GBA (zebrafish larvae) (Danio rerio, UniProt E7EZM1); experiment: live larvae exposed, residual activity in lysate with 4MU-glucoside; details: covalent, in vivo: concentration in egg water, 5 days at 28.5 °C, assay pH 5.2 with AMP-DNM
T2 construct: gene gba1; endogenous enzyme in larvae, measured in larval lysate
T2 sequence (E7EZM1 20-518): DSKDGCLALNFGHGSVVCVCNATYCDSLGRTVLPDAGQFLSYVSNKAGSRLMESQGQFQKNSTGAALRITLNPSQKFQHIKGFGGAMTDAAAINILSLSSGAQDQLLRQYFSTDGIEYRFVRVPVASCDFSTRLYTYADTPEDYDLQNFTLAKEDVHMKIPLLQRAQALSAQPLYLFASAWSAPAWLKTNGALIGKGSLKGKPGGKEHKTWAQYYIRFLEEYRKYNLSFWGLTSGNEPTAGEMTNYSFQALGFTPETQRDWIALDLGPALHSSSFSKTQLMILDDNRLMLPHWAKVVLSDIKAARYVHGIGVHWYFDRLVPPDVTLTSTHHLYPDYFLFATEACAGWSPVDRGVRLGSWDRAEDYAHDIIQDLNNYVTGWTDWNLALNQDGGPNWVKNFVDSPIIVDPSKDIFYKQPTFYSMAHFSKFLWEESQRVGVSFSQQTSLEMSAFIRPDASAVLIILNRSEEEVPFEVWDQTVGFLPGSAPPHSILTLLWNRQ
Description: live larvae exposed, residual activity in lysate with 4MU-glucoside on GBA (zebrafish larvae)

[2] = biological target: T3, recombinant human GBA (rGBA, imiglucerase) (Homo sapiens, UniProt P04062, R534H); experiment: residual activity, fluorogenic 4MU-glucoside assay; type: biochemical; details: covalent, irreversible, 180 min preincubation, pH 5.2, 37 °C, 0.2% taurocholate, 0.1% Triton X-100, 3.75 mM 4MU-beta-D-glucopyranoside
T3 construct: gene GBA1; imiglucerase (Sanofi Genzyme), mature secreted enzyme
T3 sequence (P04062 40-536 R534H): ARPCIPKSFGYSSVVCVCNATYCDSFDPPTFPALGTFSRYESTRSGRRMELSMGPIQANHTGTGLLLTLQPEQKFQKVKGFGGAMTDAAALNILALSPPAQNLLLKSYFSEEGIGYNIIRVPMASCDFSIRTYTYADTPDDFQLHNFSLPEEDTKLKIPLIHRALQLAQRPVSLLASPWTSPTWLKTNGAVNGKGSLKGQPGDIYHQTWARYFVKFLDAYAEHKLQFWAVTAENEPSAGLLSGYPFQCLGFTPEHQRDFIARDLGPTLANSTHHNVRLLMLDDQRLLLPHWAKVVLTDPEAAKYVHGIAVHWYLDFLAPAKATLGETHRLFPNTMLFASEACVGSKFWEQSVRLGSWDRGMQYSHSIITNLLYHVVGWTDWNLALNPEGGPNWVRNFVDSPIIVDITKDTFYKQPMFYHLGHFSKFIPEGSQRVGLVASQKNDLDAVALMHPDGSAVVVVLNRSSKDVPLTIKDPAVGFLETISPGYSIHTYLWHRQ
Description: residual activity, fluorogenic 4MU-glucoside assay on recombinant human GBA (rGBA, imiglucerase)

GAA (zebrafish larvae) = biological target: T4, GAA (zebrafish larvae) (Danio rerio, UniProt A0A8M1QKP5); experiment: live larvae exposed, residual activity in lysate with 4MU-alpha-D-glucopyranoside; details: in vivo: concentration in egg water, 5 days at 28.5 °C, assay pH 4.0
T4 construct: endogenous enzyme in larvae, measured in larval lysate; paralogues not distinguished
T4 sequence (A0A8M1QKP5 31-918): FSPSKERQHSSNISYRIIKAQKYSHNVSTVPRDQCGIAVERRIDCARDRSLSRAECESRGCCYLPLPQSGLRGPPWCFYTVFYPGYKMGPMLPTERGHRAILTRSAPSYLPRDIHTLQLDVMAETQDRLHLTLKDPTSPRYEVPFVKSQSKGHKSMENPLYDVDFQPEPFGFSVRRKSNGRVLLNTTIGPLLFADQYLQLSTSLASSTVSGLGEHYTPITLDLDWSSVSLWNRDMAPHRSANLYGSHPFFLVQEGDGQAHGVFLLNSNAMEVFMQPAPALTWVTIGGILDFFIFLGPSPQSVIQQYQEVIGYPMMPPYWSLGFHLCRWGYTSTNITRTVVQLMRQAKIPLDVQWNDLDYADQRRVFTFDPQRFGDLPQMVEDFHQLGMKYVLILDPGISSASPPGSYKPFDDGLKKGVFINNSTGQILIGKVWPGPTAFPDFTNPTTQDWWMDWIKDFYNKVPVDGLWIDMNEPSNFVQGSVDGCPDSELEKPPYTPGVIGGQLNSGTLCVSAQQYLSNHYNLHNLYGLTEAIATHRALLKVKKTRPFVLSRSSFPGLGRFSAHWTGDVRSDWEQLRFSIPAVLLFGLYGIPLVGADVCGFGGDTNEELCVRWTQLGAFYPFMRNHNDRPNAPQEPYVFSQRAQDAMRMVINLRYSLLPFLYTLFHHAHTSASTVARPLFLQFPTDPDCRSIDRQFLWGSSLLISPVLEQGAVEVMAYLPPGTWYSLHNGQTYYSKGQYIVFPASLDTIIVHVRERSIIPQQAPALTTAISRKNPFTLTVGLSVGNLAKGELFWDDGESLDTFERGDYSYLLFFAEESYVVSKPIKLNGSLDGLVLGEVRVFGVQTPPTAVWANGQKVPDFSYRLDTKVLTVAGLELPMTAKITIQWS
Description: live larvae exposed, residual activity in lysate with 4MU-alpha-D-glucopyranoside on GAA (zebrafish larvae)

[3] = covalent, read-out: CBE / Enz. assay

| Structure (SMILES) | IC50 [1, 3] [µM] | IC50 (GBA (zebrafish larvae); read-out: CBE / Enz. assay) [µM] | IC50 ([2]; read-out: CBE / Enz. assay) [µM] | IC50 (GAA (zebrafish larvae); [3]) [µM] | IC50 ([1]; read-out: CP / Enz. assay) [µM] | IC50 (GBA (zebrafish larvae); read-out: CP / Enz. assay) [µM] | IC50 ([2]; read-out: CP / Enz. assay) [µM] | IC50 (GAA (zebrafish larvae); read-out: CP / Enz. assay) [µM] |
| --- | --- | --- | --- | --- | --- | --- | --- | --- |
| OC1C(O)C(O)C2OC2C1O (centres unmarked) [compound 1, conduritol B epoxide] | 309 | 58.5 | 4.28 | 5010 | – | – | – | – |
| OC[C@@H]1[C@@H](O)[C@H](O)[C@@H](O)[C@@H]2O[C@H]12 [compound 2, cyclophellitol] | – | – | – | – | > 10 | 0.13 | 0.03 | > 100 |
